Results taken from patent publication US12435091B2, “RNA-binding protein multimerization inhibitors and methods of use thereof” (THE UAB RESEARCH FOUNDATION, priority 2020, dated 2025).

Legend:
[1] = Mouse liver microsomal stability in vitro; type: in vitro ADME; details: liver microsomes, read-out: MLM t1/2
Description: (§3) Selected compounds were assessed for their aqueous solubility, Log D and mouse and human liver microsomal stability.

[2] = tested on: secreted proteins of astrocytes; test: ELISA of secreted proteins in culture media of LPS-stimulated astrocytes; type: cell-based
Description: Next, the impact of SRI-42127 on induction of inflammatory cytokine mRNAs as depicted in FIG. 15, Panel B was assessed. A significant 3-4-fold suppression of mRNA for IL-1β, IL-6, CXCL1, and CCL2 was observed. […] All chemokines were likewise suppressed, including KC, CCL2, CCL3, CCL4, CXCL10, from 2.5 to 8.1-fold.

Log D at pH 7.4 = type: physicochemical
Description: as §3

U251 glioma cell line = test: cell cycle analysis (propidium iodide, flow cytometry); type: cell-based; details: U251, 10 uM for 18 hours
Description: (§1) Cell cycle distribution was evaluated using a standard staining procedure with propidium iodide (PI) (Sigma-Aldrich; St. Louis, MO) followed by flow cytometry. For cell cycle analysis, cells were plated at low density and synchronized by starvation in serum-free media for 48 hours, then treated with drug or vehicle (control) for 18 hours in normal media with 10% serum. Next, cells were collected, washed, and resuspended in ice-cold phosphate buffered saline (PBS). Cells were fixed under gentle vortexing by dropwise addition of a 10×volume of ice-cold 80% ethanol (−20° C.) on ice. Subsequently, samples were stored at −20° C. for at least 18 hours until data acquisition. Before cell cycle analysis, cells were washed in PBS and treated with RNase A (200 μg/mL, in PBS) and PI (20 μg/mL) for 45 minutes at 23° C. Acquisition of at least 10000 events per sample was performed in UAB Flow Cytometry Facility. Data were analyzed by FlowJo v10 software (Becton, Dickinson and Company; Franklin Lakes, NJ).
(§2) HuR is one of the key regulators of cell cycle progression in cancer cells, particularly high-grade glioma; therefore, the arrest of cell cycle progression by the newly identified compounds supports HuR-targeted inhibition. FIG. 5B illustrates representative histograms of cell cycle progression in the established U251, LN229, and the PDGx XD456 glioma cell lines in the control (treatment with vehicles) and after treatment with SRI-42127. The bar graph represents the average numbers of cells in each phase of the cell cycle after treatment with the SRI-42127 normalized to the corresponding control values (vehicle treatment). There was a significant accumulation of cells in the G1 phase and a reduction of cells in the S phase after treatment with SRI-42127, 10 uM for 18 hours. […] The average reductions of cells in the S phase were 65±4% (n=3), 60±3% (n=3), and 70±3% (n=3) in U251, LN229, and XD456 cell lines, respectively, after treatment with SRI-42127 compared to the control.

[3] = tested on: PDGx XD456 glioma cell line; test: as above; type: cell-based; details: XD456, 10 uM for 18 hours
Description: as §1, §2

LN229 glioma cell line = test: as above; type: cell-based; details: LN229, 10 uM for 18 hours
Description: as §1, §2

[4] = tested on: secreted inflammatory factors of microglia; test: ELISA of secreted factors in culture medium of LPS-activated microglia; type: cell-based, mouse
Description: Major chemokines CXCL1, CXCL2 and CCL3 were suppressed by more than 2-fold. There was a mixed effect on markers of M2-like markers, with TGF-β1 and YM1 increasing and IL-10 decreasing. As these inflammatory factors were secreted, they were quantified by ELISA in culture medium. The greatest effect was with IL-6 which was suppressed at a lower dose of SRI-42127 (1.7-fold at 0.1 μM) and nearly 10-fold at 1.0 μM. IL-1β and TNF-α were suppressed by 5-fold at 1.0 μM.

[5] = tested on: X14P neurospheres, HuR mRNA targets; test: Illumina global RNA-sequencing of PDGx neurospheres; type: cell-based; details: 3 uM, 12 hours, compared to control
Description: Illumina global RNA-sequencing data were generated by utilizing PDGx neurospheres, which have been treated with a compound as described herein (e.g., SRI-42127, 3 uM) for 12 hours or with vehicle as the control. RNA was isolated by using TRIzol reagent (Invitrogen; Carlsbad, CA). The RNA samples were processed.
RNA sequencing was performed on PDGx-derived glioma neurospheres representing the different molecular subtypes (classical, neuronal, and mesenchymal) after treatment with vehicle (control) or SRI-42127 (3 uM) for 12 hours. Analysis of direct HuR mRNA targets and their corresponding cell signaling pathways was performed. Table 9 illustrates the evaluated gene sets, representing direct HuR mRNA targets, and their corresponding cell signaling pathways.
The analysis of direct HuR mRNA targets and their corresponding cell signaling pathways has been performed by using gene sets, which have been defined as the direct HuR targets following tumor neurosphere treatment with DHTS, an established modulator of HuR/mRNA interaction (Lal et al., Nucleic Acid Research, 2017). […] Data are represented as average+standard deviation (Aver+SD). The significance was evaluated by using Student t-test.
The analysis was generated based on RNA-Seq data.

What does the source list for `CN(c1ccc2ncc(-c3ccc4cn[nH]c4c3)n2n1)C1CCOCC1` [Compound 19]?
half-life [1]: 3.3 min; suppression of secreted chemokines KC, CCL2, CCL3, CCL4, CXCL10 [2]: 2.5 to 8.1 fold; suppression of secreted IL-6 ([2]; 1.0 μM): 8.8 fold; suppression of secreted TNF-α ([2]; 1.0 μM): 5.7 fold; logD (Log D at pH 7.4): 3.1; increase of cells in the G1 phase compared to the control (U251 glioma cell line): 97±33%; reduction of cells in the S phase compared to the control (U251 glioma cell line): 65±4%; increase of cells in the G1 phase compared to the control [3]: 210±40%; reduction of cells in the S phase compared to the control [3]: 70±3%; increase of cells in the G1 phase compared to the control (LN229 glioma cell line): 56±28%; reduction of cells in the S phase compared to the control (LN229 glioma cell line): 60±3%; suppression of secreted IL-6 ([4]; 0.1 μM): 1.7 fold; suppression of secreted IL-1β ([4]; 1.0 μM): 5 fold; suppression of secreted IL-6 ([4]; 1.0 μM): ~10 fold; suppression of secreted TNF-α ([4]; 1.0 μM): 5 fold; gene set average value, Activation of BH3-only proteins Homo sapiens_R-HSA-114452 [5]: 1.03; gene set average value, Cell Cycle Check points_Homo Sapiens_R-HSA-69620 [5]: 0.77; gene set average value, Cell Cycle, Mitotic_Homo Sapiens_R-HSA-69278 [5]: 0.80; gene set average value, Cell Cycle_Homo sapiens_R-HSA-1640170 [5]: 0.74; gene set average value, Cell cycle_Homo Sapiens_hsa04110 [5]: 0.99; gene set average value, Cellular Senescence_Homo sapiens_R-HSA-2559583 [5]: 0.99; gene set average value, Cellular responses to Stress_Homo sapiens_R-HSA-2262752 [5]: 0.74; gene set average value, Deadenylation-dependent mRNA decay_Homo sapiens_R-HSA-429914 [5]: 1.03; gene set average value, Developmental Biology_Homo sapiens_R-HSA-1266738 [5]: 0.65; gene set average value, Epstein-Barr virus Infection_Homo Sapiens_hsa05169 [5]: 1.0; gene set average value, G2/M Check points_Homo sapiens_R-HSA-69481 [5]: 0.82; gene set average value, G2/M DNA damage Checkpoint_Homo sapiens_R-HSA-69473 [5]: 0.82; gene set average value, Gene Expression_Homo Sapiens_R-HSA-2559583 [5]: 0.95; gene set average value, HTLV-1 infection_Homo Sapiens_hsa05186 [5]: 0.89; gene set average value, Intrinsic Pathway for Apoptosis_Homo sapiens_R-HSA-109606 [5]: 1.03; gene set average value, MAPK signaling Pathway_Homo Sapiens_hsa04010 [5]: 1.0; gene set average value, Membrane Trafficking_Homo sapiens_R-HAS-199991 [5]: 0.86; gene set average value, Mitotic G1-G1/S phases_Homo sapiens_R-HSA-453279 [5]: 1.00; gene set average value, P53 signaling pathway_Homo Sapiens_hsa04115 [5]: 1.9; gene set average value, RHO GTPases Activate Formins_Homo sapiens_R-HSA-5663220 [5]: 0.62; gene set average value, RHO GTPases Effectors_Homo sapiens_R-HSA-195258 [5]: 0.70; gene set average value, RNA degradation_Homo Sapiens_hsa03018 [5]: 1.97; gene set average value, Regulation of TP53 Activity through Phosphorylation_Homo sapiens_R-HSA-6804756 [5]: 0.58; gene set average value, Regulation of TP53 Activity_Homo sapiens_R-HSA-109606 [5]: 0.94; gene set average value, Signaling by Rho GTPases_Homo sapiens_R-HSA-194315 [5]: 0.65; gene set average value, TP53 Regulates Metabolic Genes_Homo sapiens_R-HSA-5628897 [5]: 1.03; gene set average value, Transcriptional Regulation by TP53_Homo sapiens_R-HSA-3700989 [5]: 1.04; gene set average value, Translocation of GLUT4 to the plasma membrane_Homo sapiens_R-HSA-1445148 [5]: 0.92
